# Measured values taken from US20110182888A1, “Administration of an Inhibitor of HDAC, an Inhibitor of HER-2, and a Selective Estrogen Receptor Modulator” (priority 2008, published 2011).
# Experiments:
# [1] = tested on: erbB2-overexpressing SKBR3, BT474, and MDA-MB-453 cells; test: Apoptotic-ELISA, western blots on PARP cleavage and caspase-3, -8, -9 activation, flow cytometry in erbB2-overexpressing cells; type: cell-based, human; conditions: SNDX-275 5 μM; SKBR3, BT474, MDA-MB-453 cells
# From the text: (§1) SNDX-275 had little effect on apoptosis induction and cell cycle progression in basal breast cancer MDA-MB-468, MDA-MB-231, and BT20 cells. […] Moreover, elevated expression of erbB3 via transfection with erbB3-containing expression vector abrogated SNDX-275-induced inactivation of the downstream signaling, apoptosis, and cell cycle arrest, whereas knockdown of erbB3 and/or erbB2 expression with specific shRNAs enhanced the efficacy of SNDX-275-induced inactivation of the downstream signaling, apoptosis, and cell cycle arrest in SKBR3 and BT474 cells.
# [2] = tested on: human breast cancer cells; conditions: through induction of TGFβ type II receptor or TRAIL expression, or degradation of DNMT1; cited from earlier work
# [3] = tested on: P-erbB3, P-erbB2, P-MAPK, P-Akt, erbB3 and erbB2 in SKBR3, BT474 and MDA-MB-453 cells; test: erbB receptor and downstream signaling levels upon SNDX-275 treatment; type: cell-based, human
# From the text: as §1
# [4] = tested on: erbB2-overexpressing breast cancer cells; test: cell proliferation (MTS) assays, erbB2-overexpressing vs basal breast cancer cells; type: cell-based, human; conditions: MTS assay; erbB2-overexpressing breast cancer cells compared to basal cells
# From the text: as §1
# SKBR3 and BT474 cells = test: erbB3 overexpression or erbB3/erbB2 shRNA knockdown and SNDX-275 response; type: cell-based, human
# From the text: as §1
# [5] = tested on: basal breast cancer MDA-MB-468, MDA-MB-231, and BT20 cells; test: apoptosis induction and cell cycle progression in basal breast cancer cells; type: cell-based, human; conditions: MDA-MB-468, MDA-MB-231, BT20 cells
# From the text: as §1
compound,measurement,setting,value
"Nc1ccccc1NC(=O)c1ccc(CNC(=O)OCc2cccnc2)cc1 [SNDX-275, N-(2-aminophenyl)-4-(N-(pyridin-3-ylmethoxycarbonyl)aminomethyl)benzamide]",apoptosis and cell cycle arrest,[1],induced apoptosis and cell cycle G1 arrest
same,proliferation and apoptosis,[2],inhibit proliferation and induce apoptosis
same,erbB2 receptor,[3],lesser reduction
same,erbB3 protein,[3],rapid decrease
same,"levels of P-erbB3, P-erbB2, P-MAPK, and P-Akt",[3],significantly decreased
same,growth inhibition,[4],much stronger growth inhibition
same,"efficacy of SNDX-275-induced inactivation of downstream signaling, apoptosis, and cell cycle arrest with erbB3 and/or erbB2 knockdown","SKBR3 and BT474 cells; specific shRNAs, SKBR3 and BT474 cells",enhanced
same,"SNDX-275-induced inactivation of downstream signaling, apoptosis, and cell cycle arrest with elevated erbB3 expression",SKBR3 and BT474 cells; transfection with erbB3-containing expression vector,abrogated
same,apoptosis induction and cell cycle progression,[5],little effect
